The structures appear in SMILES notation. In brackets after ≈: the same amount, converted by molar mass.

Data set [1] in a line: Genotoxicity in Salmonella typhimurium TA1535 assessed as number of revertants at 2x10^-4 mg/plate incubated for 72 hrs in absence of liver S9 fraction by Ames test (reference value: 14.33 +/- 0.58). The settings on record: salmonella enterica subsp. enterica serovar typhimurium, s9, 72 h. The format is toxicity.
The nature of data set [2]: Genotoxicity in Salmonella typhimurium TA1537 assessed as number of revertants at 4x10^-5 mg/plate incubated for 72 hrs in absence of liver S9 fraction by Ames test (reference value: 22.67 +/- 2.52). The format is toxicity. Conditions: salmonella enterica subsp. enterica serovar typhimurium, s9, 72 h.
The nature of data set [3]: Genotoxicity in Salmonella typhimurium TA98 assessed as number of revertants at 1x10^-3 mg/plate incubated for 72 hrs in absence of liver S9 fraction by Ames test (reference value: 57.33 +/- 3.06). The format is toxicity. The settings on record: salmonella enterica subsp. enterica serovar typhimurium, s9, 72 h.
Data set [4] in a line: Genotoxicity in Salmonella typhimurium TA102 assessed as number of revertants at 1x10^-3 mg/plate incubated for 72 hrs in presence of liver S9 fraction by Ames test (reference value: 465.33 +/- 18.04). Conditions: salmonella enterica subsp. enterica serovar typhimurium, s9, 72 h. Type of data set: toxicity, subcellular.
A short description of data set [5]: Genotoxicity in Salmonella typhimurium TA1535 assessed as number of revertants at 4x10^-5 mg/plate incubated for 72 hrs in presence of liver S9 fraction by Ames test (reference value: 15.33 +/- 2.52). The settings on record: salmonella enterica subsp. enterica serovar typhimurium, s9, 72 h. The format is toxicity, subcellular.
Data set [6] relates to Escherichia coli. In words: Inhibition of protein synthesis in Escherichia coli ATCC 25922 assessed as reduction in protein content at […] measured upto 12 hrs by microporous enzyme labeling method relative to control. Type of data set: functional.
Data set [7] concerns Staphylococcus aureus. Nature of the data set: Antibacterial activity against Staphylococcus aureus ATCC 29213 incubated for 16 to 20 hrs using 10^3 CFU/ml bacterial inoculum by broth microdilution method. Conditions: time 16-20 hrs. The format is functional.
Data set [8] relates to Staphylococcus aureus. Nature of the data set: Antibacterial activity against Staphylococcus aureus ATCC 29213 at pH 6.8 incubated for 16 to 20 hrs by broth microdilution method. The settings on record: time 16-20 hrs. The format is functional.
Data set [9] concerns Escherichia coli. In words: Antibacterial activity against Escherichia coli ATCC 25922 incubated for 16 to 20 hrs in presence of 25% foetal bovine serum by broth microdilution method. Type of data set: functional. Conditions: time 16-20 hrs.
The test system of data set [10] is Staphylococcus aureus. In words: Antibacterial activity against Staphylococcus aureus ATCC 29213 at pH 7.6 incubated for 16 to 20 hrs by broth microdilution method. Type of data set: functional. Conditions: time 16-20 hrs.
Data set [11] is described as follows: Genotoxicity in Salmonella typhimurium TA1535 assessed as number of revertants at 2x10^-4 mg/plate incubated for 72 hrs in presence of liver S9 fraction by Ames test (reference value: 15.33 +/- 2.52). Type of data set: toxicity, subcellular. The settings on record: salmonella enterica subsp. enterica serovar typhimurium, s9, 72 h.
The test system of data set [12] is Escherichia coli. In words: Antibacterial activity against Escherichia coli ATCC 25922 at pH 7.6 incubated for 16 to 20 hrs by broth microdilution method. Type of data set: functional. Conditions: time 16-20 hrs.
Data set [13] is described as follows: Genotoxicity in Salmonella typhimurium TA98 assessed as number of revertants at 1.6x10^-6 mg/plate incubated for 72 hrs in presence of liver S9 fraction by Ames test (reference value: 43.67+/- 7.1). Type of data set: toxicity, subcellular. Conditions: salmonella enterica subsp. enterica serovar typhimurium, s9, 72 h.

On to `CC[C@H]1OC(=O)C[C@@H](O)[C@H](C)[C@@H](O[C@@H]2O[C@H](C)[C@@H](O)[C@H](N(C)C)[C@H]2O)[C@@H](CCN(C)Cc2cn(-c3cnc4ccccc4c3)nn2)C[C@@H](C)C(=O)/C=C/C(C)=C/[C@@H]1CN1CCCCCC1`, for which the Activity is on record as 10.33 in data set [1]; 19.67 in data set [2]; 60.33 in [3]; 449.33 in [4]; 15 in [5]; 12.67 in data set [11]. In addition, the Activity in data set [13] stood at 42.33. Also, the inhibition in the data set with Escherichia coli [6] turned out to be 32.1%. Further, the MIC with Staphylococcus aureus [7] was found to be 0.0625 µg/mL (≈ 0.0693 µM); with Staphylococcus aureus [8], 4 µg/mL (≈ 4.43 µM); in the data set on Escherichia coli [9], 4 µg/mL; in the data set on Staphylococcus aureus [10], 0.25 µg/mL (≈ 0.277 µM); against Escherichia coli [12], 0.5 µg/mL (≈ 0.554 µM).

Source of the values: ChEMBL document CHEMBL5126592, “Design, synthesis and activity against drug-resistant bacteria evaluation of C-20, C-23 modified 5-O-mycaminosyltylonolide derivatives” (Eur J Med Chem, 2022).
